Literature values as cited in article PMC7958448, “Bepridil is potent against SARS-CoV-2 in vitro” (Proceedings of the National Academy of Sciences of the …, 2021).

Test system: SARS-CoV-2 in Vero E6 cells
Details: cited from earlier work

## CCC(CC)COC(=O)[C@H](C)N[P@](=O)(OC[C@H]1O[C@@](C#N)(c2ccc3c(N)ncnn23)[C@H](O)[C@@H]1O)Oc1ccccc1 [remdesivir]
  EC50: 770 nM
